# Experimental data taken from ChEMBL document CHEMBL3046389, “Synthesis and biological evaluation of novel hydroquinone dimethyl ethers as potential anticancer and antimicrobial agents” (2013).
# What was measured:
# Format in all cases: functional
# [1] = tested on: Bacillus subtilis; experiment: Antimicrobial activity against Bacillus subtilis ATCC 6633 after 48 hr by two-fold serial broth dilution method; conditions: ATCC 6633, 48 h
# [2] = tested on: Escherichia coli; experiment: Antimicrobial activity against Escherichia coli ATCC 11775 after 48 hr by two-fold serial broth dilution method; conditions: ATCC 11775, 48 h
# [3] = tested on: Candida albicans; experiment: Antimicrobial activity against Candida albicans DSM 70014 after 48 hr by two-fold serial broth dilution method; conditions: DSM 70014, 48 h
# [4] = tested on: Staphylococcus aureus; experiment: Antimicrobial activity against Staphylococcus aureus DSM 1104 after 48 hr by two-fold serial broth dilution method; conditions: DSM 1104, 48 h
# [5] = tested on: Pseudomonas aeruginosa; experiment: Antimicrobial activity against Pseudomonas aeruginosa ATCC 10145 after 48 hr by two-fold serial broth dilution method; conditions: ATCC 10145, 48 h
# [6] = tested on: Staphylococcus aureus; experiment: Antimicrobial activity against Staphylococcus aureus DSM 1104 after 48 hr by two-fold serial broth dilution method relative to ampicillin
# [7] = tested on: UO-31; experiment: Growth inhibition of Homo sapiens (human) UO31 cells at 10 uM after 48 hr by SRB assay; conditions: UO-31, 48 h, read-out: GI
# [8] = tested on: Pseudomonas aeruginosa; experiment: Ratio of ampicillin MIC to compound MIC for Pseudomonas aeruginosa ATCC 10145 after 48 hr by two-fold serial broth dilution method
# [9] = tested on: T47D; experiment: Growth inhibition of Homo sapiens (human) T47D cells at 10 uM after 48 hr by SRB assay; conditions: read-out: GI
# [10] = tested on: HCT-116; experiment: Growth inhibition of Homo sapiens (human) HCT116 cells at 10 uM after 48 hr by SRB assay; conditions: HCT-116, 48 h, read-out: GI
# [11] = tested on: M14; experiment: Growth inhibition of Homo sapiens (human) M14 cells at 10 uM after 48 hr by SRB assay; conditions: M14, 48 h, read-out: GI
# [12] = tested on: UACC-62; experiment: Growth inhibition of Homo sapiens (human) UACC62 cells at 10 uM after 48 hr by SRB assay; conditions: UACC-62, 48 h, read-out: GI
# [13] = tested on: PC-3; experiment: Growth inhibition of Homo sapiens (human) PC3 cells at 10 uM after 48 hr by SRB assay; conditions: PC-3, 48 h, read-out: GI
# [14] = tested on: HCT-15; experiment: Growth inhibition of Homo sapiens (human) HCT15 cells at 10 uM after 48 hr by SRB assay; conditions: HCT-15, 48 h, read-out: GI
# [15] = tested on: CAKI-1; experiment: Growth inhibition of Homo sapiens (human) CAKI-1 cells at 10 uM after 48 hr by SRB assay; conditions: CAKI-1, 48 h, read-out: GI
# [16] = tested on: MDA-MB-468; experiment: Growth inhibition of Homo sapiens (human) MDA-MB-468 cells at 10 uM after 48 hr by SRB assay; conditions: MDA-MB-468, 48 h, read-out: GI
# [17] = tested on: EKVX; experiment: Growth inhibition of Homo sapiens (human) EKVX cells at 10 uM after 48 hr by SRB assay; conditions: read-out: GI
# [18] = tested on: Malme-3M; experiment: Growth inhibition of Homo sapiens (human) MALME-3M cells at 10 uM after 48 hr by SRB assay; conditions: read-out: GI
# [19] = tested on: A549; experiment: Growth inhibition of Homo sapiens (human) A549/ATCC cells at 10 uM after 48 hr by SRB assay; conditions: A549, 48 h, read-out: GI
# [20] = tested on: KM12; experiment: Growth inhibition of Homo sapiens (human) KM12 cells at 10 uM after 48 hr by SRB assay; conditions: KM12, 48 h, read-out: GI
# [21] = tested on: K562; experiment: Growth inhibition of Homo sapiens (human) K562 cells at 10 uM after 48 hr by SRB assay; conditions: K562, 48 h, read-out: GI
# [22] = tested on: SR; experiment: Growth inhibition of Homo sapiens (human) SR cells at 10 uM after 48 hr by SRB assay; conditions: read-out: GI
# [23] = tested on: RXF 393; experiment: Growth inhibition of Homo sapiens (human) RXF393 cells at 10 uM after 48 hr by SRB assay; conditions: RXF 393, 48 h, read-out: GI
# [24] = tested on: IGROV-1; experiment: Growth inhibition of Homo sapiens (human) IGROV1 cells at 10 uM after 48 hr by SRB assay; conditions: IGROV-1, 48 h, read-out: GI
# [25] = tested on: MDA-MB-435; experiment: Growth inhibition of Homo sapiens (human) MDA-MB-435 cells at 10 uM after 48 hr by SRB assay; conditions: MDA-MB-435, 48 h, read-out: GI
# [26] = tested on: ACHN; experiment: Growth inhibition of Homo sapiens (human) ACHN cells at 10 uM after 48 hr by SRB assay; conditions: read-out: GI
# [27] = tested on: NCI-H23; experiment: Growth inhibition of Homo sapiens (human) NCI-H23 cells at 10 uM after 48 hr by SRB assay; conditions: NCI-H23, 48 h, read-out: GI
# [28] = tested on: MCF7; experiment: Growth inhibition of Homo sapiens (human) MCF7 cells at 10 uM after 48 hr by SRB assay; conditions: MCF7, 48 h, read-out: GI
# [29] = tested on: SF-295; experiment: Growth inhibition of Homo sapiens (human) SF295 cells at 10 uM after 48 hr by SRB assay; conditions: SF-295, 48 h, read-out: GI
# [30] = tested on: HL-60(TB); experiment: Growth inhibition of Homo sapiens (human) HL-60(TB) cells at 10 uM after 48 hr by SRB assay; conditions: HL-60, 48 h, read-out: GI
# [31] = tested on: SK-MEL-5; experiment: Growth inhibition of Homo sapiens (human) SK-MEL-5 cells at 10 uM after 48 hr by SRB assay; conditions: SK-MEL-5, 48 h, read-out: GI
smiles,measurement,setting,value
COc1ccc(OC)c(/C=C/C(=O)N/N=C/c2ccc([N+](=O)[O-])cc2)c1,MBC,[1],50 µg/mL
same,MIC,[1],50 µg/mL
same,MBC,[2],50 µg/mL
same,MIC,[2],50 µg/mL
same,MFC,[3],50 µg/mL
same,MIC,[3],50 µg/mL
same,MBC,[4],100 µg/mL
same,MIC,[4],100 µg/mL
same,MBC,[5],50 µg/mL
same,MIC,[5],50 µg/mL
COc1ccc(OC)c(/C=C/C2=NN(C(C)=O)C(c3ccccc3)O2)c1 (stereo not drawn),MBC,[1],50 µg/mL
same,MIC,[1],50 µg/mL
same,MBC,[2],100 µg/mL
same,MIC,[2],100 µg/mL
same,MFC,[3],50 µg/mL
same,MIC,[3],50 µg/mL
same,MBC,[4],50 µg/mL
same,MIC,[4],25 µg/mL
same,MBC,[5],100 µg/mL
same,MIC,[5],100 µg/mL
COc1ccc(OC)c(/C=C/C2=NN(C(C)=O)C(c3ccc(Cl)cc3)O2)c1 (stereo not drawn),MBC,[1],50 µg/mL
same,MIC,[1],50 µg/mL
same,MBC,[2],50 µg/mL
same,MIC,[2],25 µg/mL
same,MFC,[3],100 µg/mL
same,MIC,[3],50 µg/mL
same,MBC,[4],100 µg/mL
same,MIC,[4],100 µg/mL
same,MBC,[5],50 µg/mL
same,MIC,[5],25 µg/mL
COc1ccc(OC)c(/C=C/C2=NN(C(C)=O)C(c3ccc([N+](=O)[O-])cc3)O2)c1 (stereo not drawn),MBC,[1],100 µg/mL
same,MIC,[1],50 µg/mL
same,MBC,[2],100 µg/mL
same,MIC,[2],50 µg/mL
same,MFC,[3],100 µg/mL
same,MIC,[3],100 µg/mL
same,MBC,[4],100 µg/mL
same,MIC,[4],100 µg/mL
same,MBC,[5],100 µg/mL
same,MIC,[5],50 µg/mL
COc1ccc(OC)c(/C=C/c2nnc(S)n2-c2ccccc2)c1,MBC,[1],50 µg/mL
same,MIC,[1],50 µg/mL
same,MBC,[2],50 µg/mL
same,MIC,[2],25 µg/mL
same,MFC,[3],100 µg/mL
same,MIC,[3],100 µg/mL
same,MBC,[4],50 µg/mL
same,MIC,[4],50 µg/mL
same,MBC,[5],100 µg/mL
same,MIC,[5],100 µg/mL
COc1ccc(OC)c(/C=C/c2nnc(S)n2-c2ccc(C)cc2)c1,Activity,[6],40%
same,MBC,[1],25 µg/mL
same,MIC,[1],12.5 µg/mL
same,MBC,[2],50 µg/mL
same,MIC,[2],25 µg/mL
same,MFC,[3],50 µg/mL
same,MIC,[3],25 µg/mL
same,MBC,[4],25 µg/mL
same,MIC,[4],12.5 µg/mL
same,MBC,[5],50 µg/mL
same,MIC,[5],50 µg/mL
COc1ccc(OC)c(/C=C/c2nnc(SC)n2-c2ccccc2)c1,MBC,[1],50 µg/mL
same,MIC,[1],50 µg/mL
same,MBC,[2],50 µg/mL
same,MIC,[2],50 µg/mL
same,inhibition of growth at 10 µM,[7],44.5%
same,MFC,[3],50 µg/mL
same,MIC,[3],50 µg/mL
same,MBC,[4],50 µg/mL
same,MIC,[4],50 µg/mL
same,MBC,[5],50 µg/mL
same,MIC,[5],25 µg/mL
same,Ratio,[8],2
same,inhibition of growth at 10 µM,[9],41.8%
CCSc1nnc(/C=C/c2cc(OC)ccc2OC)n1-c1ccccc1,MBC,[1],100 µg/mL
same,MIC,[1],100 µg/mL
same,MBC,[2],100 µg/mL
same,MIC,[2],100 µg/mL
same,MFC,[3],50 µg/mL
same,MIC,[3],50 µg/mL
same,MBC,[4],100 µg/mL
same,MIC,[4],100 µg/mL
same,MBC,[5],100 µg/mL
same,MIC,[5],100 µg/mL
COc1ccc(OC)c(/C=C/c2nnc(SC)n2-c2ccc(Cl)cc2)c1,inhibition of growth at 10 µM,[10],40.2%
same,inhibition of growth at 10 µM,[11],40%
same,inhibition of growth at 10 µM,[12],50.5%
same,inhibition of growth at 10 µM,[13],61.1%
same,MBC,[1],100 µg/mL
same,MIC,[1],100 µg/mL
same,inhibition of growth at 10 µM,[14],41.1%
same,inhibition of growth at 10 µM,[15],35.5%
same,inhibition of growth at 10 µM,[16],74.8%
same,inhibition of growth at 10 µM,[17],38.6%
same,MBC,[2],100 µg/mL
same,MIC,[2],100 µg/mL
same,inhibition of growth at 10 µM,[18],55.2%
same,inhibition of growth at 10 µM,[19],35.2%
same,inhibition of growth at 10 µM,[7],60.4%
same,inhibition of growth at 10 µM,[20],46.9%
same,MFC,[3],100 µg/mL
same,MIC,[3],50 µg/mL
same,MBC,[4],100 µg/mL
same,MIC,[4],100 µg/mL
same,inhibition of growth at 10 µM,[21],69.3%
same,inhibition of growth at 10 µM,[22],58.5%
same,inhibition of growth at 10 µM,[23],40.3%
same,MBC,[5],50 µg/mL
same,MIC,[5],50 µg/mL
same,inhibition of growth at 10 µM,[24],38.2%
same,inhibition of growth at 10 µM,[25],91.3%
same,inhibition of growth at 10 µM,[26],32.1%
same,inhibition of growth at 10 µM,[27],40.3%
same,inhibition of growth at 10 µM,[28],53.3%
same,inhibition of growth at 10 µM,[29],53.2%
same,inhibition of growth at 10 µM,[30],34.3%
same,inhibition of growth at 10 µM,[9],57.2%
same,inhibition of growth at 10 µM,[31],46.6%
CCSc1nnc(/C=C/c2cc(OC)ccc2OC)n1-c1ccc(Cl)cc1,MBC,[1],100 µg/mL
same,MIC,[1],50 µg/mL
same,MBC,[2],50 µg/mL
same,MIC,[2],50 µg/mL
same,MFC,[3],50 µg/mL
same,MIC,[3],50 µg/mL
same,MBC,[4],100 µg/mL
same,MIC,[4],100 µg/mL
same,MBC,[5],50 µg/mL
same,MIC,[5],50 µg/mL
